# Measurements reported in US12569470B2, “Vasodilator and use thereof” (Bioradical Research Institute Corp., priority 2019, dated 2026).
# Legend:
# [1] = Water solubility noted at synthesis; assay type: physicochemical; conditions: noted for the isolated crystal
# Experimental: 3.58 g of 3-methyl-1-phenyl-5-pyrazolone (hereinafter also referred to as “edaravone”), 2.59 g of malonaldehyde dianilide hydrochloride, and 20 ml of ethanol were added to a reactor and dissolved. To the obtained solution, 2.04 g of triethylamine and 0.4 ml of water were added and stirred for 1 hour at room temperature (about 25° C.; hereinafter, the same applies). After the stirring, the resultant was further reacted for 1 hour at 50° C. After discharging the obtained reaction solution to 100 ml of 1N hydrochloric acid, the mixture was sufficiently stirred and the precipitate was filtered. The resulting cake was washed with water. The cake was added to 200 ml of an aqueous sodium hydroxide solution having a 1% by weight concentration and completely dissolved by heating with stirring. Next, the dissolved solution was stirred for 3 hours after cooling to room temperature. Then, the liquid containing the obtained precipitate was filtered, and then the cake was washed with water. […] Note that the melting point of ED2AP was 249° C., which was water-soluble.
# 3 ml of dimethylformamide was added to a reactor and the exterior of the reactor was cooled with ice water. 1.75 g of phosphorus oxychloride was slowly dropped into the reactor (Reaction Solution A). In another reactor, 1.78 g of edaravone was dissolved in 5 ml of dimethylformamide (Reaction Solution B). […]
# [2] = Storage stability in pH7.4-PBS or pure water at 37° C., residual rate by HPLC; assay type: physicochemical; conditions: for Residual rate (%) After 1 week / Residual rate (%) After 2 weeks: 200 μmol/1, 37° C., protected from light; for Residual rate (%) Initial concentration: 200 μmol/1, initial concentration (100%) being a reference
# Experimental: The storage stability of edaravone, EMPO, ED2AP, and BisEp-C3 of the following formula (A) were examined. Specifically, edaravone, EMPO, ED2AP, and BisEp-C3 were dissolved in pH7.4-PBS or pure water so as to have a final concentration of 200 μmol/1 to prepare dissolved solutions of these compounds. When the compounds were difficult to be dissolved, they were dissolved in an ultrasonic cleaner with warm water at 40° C.
# Under the measurement conditions for High-Performance Liquid Chromatography (HPLC) described below, the initial concentration was quantified, and then each solution was stored in an oven, which was protected from light, at 37° C., and quantified under the same measurement conditions after 1 week and 2 weeks, to determine residual rate (%) with the initial concentration (100%) being a reference.
# Measurement Conditions for HPLC
# High-Performance Liquid Chromatography (Shimadzu Corporation)
# Data-processing software (Model: LCsolution Ver. 1.0, produced by Shimadzu Corporation)
# Pump (Model: LC-20AD; produced by Shimadzu Corporation)
# Column oven (Model: CTO-20A; produced by Shimadzu Corporation)
# Autosampler (Model: SIL-20A; produced by Shimadzu Corporation)
# PDA detector (Format: SPD-M20A)
# Column: Atlantis dC18 5 μm (250×4.6 mm I.D.; produced by Waters)
# Column temperature: 45° C.
# Detection method: UV (254 nm)
# Eluate A: pH3 buffer solution (adjusted to pH3 by adding phosphoric acid to 0.05M KH2PO4 aqueous solution)/methanol=90/10
# [3] = test system: blood vessel of the mesentery; assay: LPS-induced vascular disorder of the mesentery, bleeding and leukocyte rolling; assay type: in vivo, rat
# Text: Eight-week-old or older female rats (Wistar, body weight: approximately 200 g, n=1) were anesthetized by subcutaneous administration of urethane (1.75 g/kg body weight). The rats were then opened and fixed on a fixing table in such a manner that the mesentery of the rats was observable. After the fixing, the fixing table was placed under a microscope (Nikon OPTIphoto, produced by Nikon Corporation) so that the mesentery could be observed. In addition, a catheter was placed in the groin vein of the rat.
# 1μg/ml of lipopolysaccharide (LPS) (produced by Sigma-Aldrich Co., Ltd.) derived from Pseudomonas aeruginosa (ATCC27316) was added dropwise once (20 μl, 20 ng/sight) and allowed to stand for 30 minutes. Next, a saline solution containing BisEP-C3 prepared in the same manner as in Example 9 was rapidly administered intravenously via the catheter so as to be 1 mg/kg body weight. After the intravenous administration, the saline solution was administered continuously so as to be 1 mg/kg body weight per hour (0.15 ml/hour). […] In the obtained photograph, the area of the region where bleeding occurred (bleeding area) was detected based on the number of pixels, and then the proportion of the area (bleeding area proportion) occupied per visual field was calculated. […]
SMILES,solubility in water [1],Residual rate (%) After 1 week ([2]; Pure water),Residual rate (%) After 2 weeks ([2]; Pure water),Residual rate (%) Initial concentration ([2]; Pure water),Residual rate (%) After 1 week ([2]; pH 7.4-PBS),Residual rate (%) After 2 weeks ([2]; pH 7.4-PBS),Residual rate (%) Initial concentration ([2]; pH 7.4-PBS),"bleeding area and bleeding area proportion ([3]; LPS instillation, 1 mg/kg intravenously then 1 mg/kg per hour, up to 180 minutes, FIGS. 12 and 13)","rolling phenomena of leukocytes ([3]; after LPS instillation, compared to the control)"
"CC1=NN(c2ccccc2)C(=O)/C1=C/C=C/c1c(C)nn(-c2ccccc2)c1O [ED2AP, 2,4-dihydro-4-[3-(5-hydroxy-3-methyl-1-phenyl-1H-pyrazol-4-yl)-2-propen-1-ylidene]-5-methyl-2-phenyl-3H-pyrazol-3-one]",water-soluble,96.1%,89.8%,100%,96.2%,91.3%,100%,,
"CCN1N=C(C)/C(=C\C=C\c2c(C)nn(CC)c2O)C1=O [BisEp-C3, 2,4-dihydro-4-[3-(1-ethyl-5-hydroxy-3-methyl-1H-pyrazol-4-yl)-2-propen-1-ylidene]-2-ethyl-5-methyl-3H-pyrazol-3-one]",water-soluble,99.4%,88.5%,100%,98.7%,93.6%,100%,no bleeding was observed,a large number of rolling phenomena of leukocytes were observed
